Consider 102 molecules from the OPERA property sets (Mansouri et al. 2018).

The structures appear in SMILES notation. Where a SMILES comes first, the peptide text is derived from it.

`CC(C)Nc1nc(N)nc(O)n1` displayed a logP of 1.27.
As for `CCCCOCCCCCNC(=O)NC12CC3CC(CC(C3)C1)C2`, the figure is 5.
Regarding `COC(=O)C1=C(C)NC(C)=C(C(=O)OCc2cccnc2)C1c1cccc2c1OCO2` (configuration not stated), the logP stood at 3.61.
As for `CCCCC(Nc1ccc([N+](=O)[O-])cc1[N+](=O)[O-])C(=O)O` (configuration not stated), the figure is 3.25; as for `ClCC1(CCl)C2C(Cl)C(Cl)C1(CCl)C(Cl)(Cl)C2Cl` (configuration not stated), 5.74.
As for `COc1ccc2cc(C(C)C(=O)OCCCOC(C)=O)ccc2c1` (configuration not stated), the figure is 3.3; as for `OCC1OC(n2cnc3c(NCCCCc4ccccc4)ncnc32)C(O)C1O` (configuration not stated), 2.29.
Molecule `FC(F)(F)c1ccccc1CNc1[nH]cnc2ncnc1-2` registered a logP of 3.04.
For the molecule `COc1c2oc(=O)ccc2cc2ccsc12`, the log partition coefficient (logP) is 2.66.
`O=C1c2cc(Cl)ccc2OCN1CCO[N+](=O)[O-]` gave a lipophilicity (logP) of 2.3.
As for `CC(C)c1cccc(O)c(=O)c1`, the logP was found to be 1.82.
As for `CC(C)(C)[N+]([O-])=Cc1ccncc1`, the figure is 0.4; as for `CC(C)C[C@H](NC(=O)[C@@H](N)CC(C)C)C(=O)O`, -1.47.
Under `CCCC(=NOCC)C1=C(O)CC2(CCSCC2)OC1=O` stands 2.9.
Consider `Cc1cc2c(cc(C)c3ccc(=O)oc32)o1`, for which the logP is 2.92.
`C[N+](C)([O-])Cc1ccccc1` registered a log partition coefficient (logP) of -0.57.
As for `O=C1C=C(c2ccc(Cl)cc2)C(=O)N1c1ccc(Cl)cc1`, the figure is 3; as for `CCCCOc1cccc(NC(=O)OCCN2CCCCC2)c1`, 5.04.
As for `O=c1ccc2cc3ccsc3cc2o1`, the figure is 2.27; as for `O=C1c2c(O)cccc2C(=CNc2ccccc2)c2cccc(O)c21`, 4.96; as for `CC(C)CC(NC(=O)C(CC(C)C)NC(=O)CNC(=O)C(N)Cc1c[nH]c2ccccc12)C(=O)O` (configuration not stated) (H-WGLL-OH; configuration not given here), 0.06.
As for `Cc1ccccc1Nc1ccncc1S(=O)(=O)NC(=O)NC1CCCCC1`, the figure is 4.35; as for `COC(=O)c1cc(NC(=O)Cn2c(C)nc3ccccc3c2=O)cc(C(=O)OC)c1`, 2.98.
Regarding `C1CCC2OC2C1` (configuration not stated), the logP came out at 1.26.
In the case of `c1ccc(Cn2cccn2)cc1`, the lipophilicity (logP) turned out to be 1.78.
As for `CC(C)CC(NC(=O)C(CC(C)C)NC(=O)C(NC(=O)C(C)N)C(C)C)C(=O)O` (configuration not stated) (H-AVLL-OH; configuration not given here), the figure is -1.74; as for `CCC(=O)NCCCCCN(O)C(=O)CCC(=O)NCCCCCN(O)C(=O)CCC(=O)NCCCCCN(O)C(C)=O`, 0.17.
Molecule `CC1CCN(CC2CN=C(N)O2)CC1` (configuration not stated) had a log partition coefficient (logP) of 0.91.
As for `CC(C)C1(C)N=C(c2ncc(CO)cc2C(=O)O)NC1=O` (configuration not stated), the figure is -0.21; as for `COc1ccc(CNc2[nH]cnc3ncnc2-3)cc1`, 2.17.
As for `CC(C)NC(=NC#N)NS(=O)(=O)c1cnccc1Nc1cccc(C(F)(F)F)c1`, the figure is 2.54; as for `Clc1ccc(N2CCN(CCn3nnc4ccccc43)CC2)cc1`, 3.4.
As for `CCCOc1ccc(CNc2[nH]cnc3ncnc2-3)cc1`, the figure is 3.15.
In turn, `CC(=NNC(=S)N(C)C)c1cc(C)ccc1O` registered a lipophilicity (logP) of 2.26.
Take `CC(=O)c1cc2cccc3ccc4cccc1c4c32`: the logP was found to be 4.16.
Consider `CSCCC(N)C(=O)NC(CC(C)C)C(=O)NC(Cc1ccccc1)C(=O)O` (configuration not stated), for which the logP was -1.03.
Under `NC(Cc1ccc(O)cc1)C(=O)N1CCCC1C(=O)NCC(=O)NC(Cc1c[nH]c2ccccc12)C(=O)O` (configuration not stated) (H-YPGW-OH; configuration not given here) stands -1.25.
`Nc1nc(N)c2c([N+](=O)[O-])cccc2n1` had a logP of 1.19.
In turn, `CC(C)CC(NC(=O)C(C)NC(=O)C(C)NC(=O)C(C)NC(=O)C(N)Cc1ccccc1)C(=O)O` (configuration not stated) (H-FAAAL-OH; configuration not given here) returned a logP of -2.23.
As to `COc1cc(OS(C)(=O)=O)ccc1-c1cn2cccnc2n1`, the logP came out at 1.05.
Consider `COc1ccc(CCNCC(O)COc2ccc(CCc3nc(Br)c[nH]3)cc2)cc1OC` (configuration not stated), for which the lipophilicity (logP) is 3.
With `CN1C(C(=O)Nc2ccccn2)=C(O)c2sc(Cl)cc2S1(=O)=O`, the lipophilicity (logP) worked out at 2.62.
Regarding `CSCCC(NC(=O)C(N)Cc1ccccc1)C(=O)O` (stereo not drawn) (H-Phe-Met-OH; configuration not given here), the logP was -1.59.
Under `CCOCCOCCOc1ccc(NC(=O)NC23CC4CC(CC(C4)C2)C3)cc1` stands 3.9; under `CC(C)CC(NC(=O)CN)C(=O)NC(CC(C)C)C(=O)NCC(=O)NC(Cc1ccccc1)C(=O)O` (configuration not stated) (H-GLLGF-OH; configuration not given here), -0.18.
Under `CO[C@H]1C=CO[C@@]2(C)Oc3c(C)c(O)c4c(c3C2=O)C2=NC3(CCN(CC(C)C)CC3)NC2=C(NC(=O)C(C)=CC=C[C@H](C)[C@H](O)[C@@H](C)[C@@H](O)[C@@H](C)[C@H](OC(C)=O)[C@@H]1C)C4=O` stands 4.5; under `COc1coc(CSC(=S)N(C)C)cc1=O`, 1.14.
Under `CC(CO)CCNc1ncnc2nc[nH]c12` (configuration not stated) stands 1.16; under `CCCCCN(C)CC(=O)Nc1c(C)cccc1C`, 3.2; under `CCC(C)SSc1ncc[nH]1` (configuration not stated), 2.76.
As for `Nc1nc(N)c2c(N)cccc2n1`, the logP was 0.3.
As for `CNC(Cc1ccccc1)C(=O)N1CCCC1C(=O)NCC1CCC(N)CC1` (configuration not stated), the figure is 1.12.
Molecule `Cc1cc2ccc3occ(C)c3c2oc1=O` showed a logP of 2.97.
The molecule `Cc1ccc(C(=O)NN=Cc2c(CO)ccc(C)c2O)cc1` showed a logP of 3.39.
As for `C[N+](C)([O-])CCCN1c2ccccc2Sc2ccccc21`, the figure is 1.9; as for `CCCC(=NOCC)C1=C(O)CC2(CCC(C)C2)OC1=O` (configuration not stated), 3.66.
As for `CCCN(CCCCC(NC(C)=O)C(=O)NCc1ccccc1)C(=O)N(CCCl)N=O` (configuration not stated), the figure is 1.99; as for `CC(C)C(NC(=O)C(N)Cc1ccccc1)C(=O)O` (stereo not drawn) (H-Phe-Val-OH; configuration not given here), -1.68; as for `CC(NC(=O)C(NC(=O)C(N)Cc1ccccc1)C(C)C)C(=O)O` (stereo not drawn) (H-Phe-Val-Ala-OH; configuration not given here), -2.19.
`O=C(O)Cc1nn(Cc2nc3cc(C(F)(F)F)ccc3s2)c(=O)c2ccccc12` returned a log partition coefficient (logP) of 2.37.
Under `COc1ccc(Br)cc1CNC1CCCNC1c1ccccc1` (configuration not stated) stands 4.2; under `CCCOc1ccccc1CNc1[nH]cnc2ncnc1-2`, 3.27.
As to `COc1ccc(C2Cc3cc(OC(F)F)ccc3N(CCN(C)C)C(=O)C2OC(C)=O)cc1` (configuration not stated), the logP turned out to be 3.8.
Under `COC(=O)c1ccc(OP(=O)(NC(C)C(=O)OC)OCC2C=CC(n3cc(C)c(=O)[nH]c3=O)O2)cc1` (configuration not stated) stands 1.01; under `Cn1c([N+](=O)[O-])cnc1-c1ccc(F)cc1`, 1.83; under `Brc1cc2ccc3cccc4ccc(c1)c2c34`, 5.8.
As for `CCCCCCCNc1ncnc2nc[nH]c12`, the figure is 3.71; as for `CNC(C)Cc1ccc(F)cc1` (configuration not stated), 2.15; as for `CCN(CC)c1nc(N)nc(Cl)n1`, 2.14.
In turn, `CSCCC(NC(=O)C(Cc1ccccc1)NC(=O)CNC(=O)C(C)NC(=O)C(N)Cc1ccc(O)cc1)C(=O)O` (configuration not stated) had a logP of -0.59.
Molecule `COCC(O)Cn1c(Br)cnc1[N+](=O)[O-]` (configuration not stated) came in with a log partition coefficient (logP) of 0.16.
For `CCOCCCNc1[nH]cnc2ncnc1-2`, the log partition coefficient (logP) came to 1.15.
Under `O=c1cc(CCl)oc(Br)c1O` stands 1.08; under `O=c1[nH]c2cc(Cl)ccc2c(O)c1-c1ccccc1`, 3.5.
In turn, `NC1=NCC(COc2ccc(-c3ccccc3)cc2)O1` (configuration not stated) yielded a logP of 2.8.
Take `Oc1cccc(CNc2ncnc3nc[nH]c23)c1`: the lipophilicity (logP) is 1.56.
In the case of `CC1CCC2CC(=O)N(CCc3ccccc3)C3OC4(C)CCC1C23OO4` (configuration not stated), the logP came to 3.94.
Consider `CC(C)NCC(O)COc1ccc(Cc2nc(Br)c[nH]2)cc1` (configuration not stated), for which the lipophilicity (logP) turned out to be 2.2.
Under `CN(C)CCOc1cccc(Cl)c1` stands 2.82; under `Cc1ccc(Cc2c[nH]cn2)c(C)c1`, 2.7; under `NC(=O)C(CCN1CC2CCC(CC2)C1)(c1ccccc1)c1ccccn1` (configuration not stated), 2.72.
Consider `CC(C)NC(=NC#N)NS(=O)(=O)c1cnccc1NC1CCCCC1`, for which the log partition coefficient (logP) is 1.53.
In turn, `CC(C)CC(N)C(=O)NC(CC(C)C)C(=O)NC(C)C(=O)NC(Cc1ccccc1)C(=O)O` (configuration not stated) (H-LLAF-OH; configuration not given here) had a logP of -1.
In turn, `Cc1oc2nc3oc(=O)ccc3c(C)c2c1C` registered a logP of 2.19.
For `COC(=O)C=CCn1ccnc1[N+](=O)[O-]`, the logP was 0.32.
Under `CN(C)CCc1ccccc1` stands 2.38; under `C=CCNC(=O)c1[nH]cc(-c2ccc(Cl)cc2)c1N1CCOCC1`, 3.7; under `CC1(C(Cl)Cl)C2C(Cl)C(Cl)C1(C(Cl)Cl)C(Cl)C2Cl` (configuration not stated), 5.52.
As for `COc1ccc(CCNCC(O)COc2ccc(-c3nccs3)cc2)cc1OC` (configuration not stated), the figure is 2.5; as for `Nc1nnnn1-c1ccccc1Cl`, 0.87.
Regarding `COC1CC(OC2C(O)CC(OC3CCC4(C)C(CCC5C4CCC4(C)C(C6=CC(=O)OC6)CCC54O)C3)OC2C)OC(C)C1OC1CC(O)C(O)C(C)O1` (configuration not stated), the lipophilicity (logP) was determined as 3.11.
As for `CCC(C)NC(=O)NN` (configuration not stated), the figure is -0.84; as for `CCC(=O)Nc1ccc2cc3ccc(N)c(CO)c3nc2c1`, 1.55; as for `COc1ccc(C2Cc3cc(SC(C)(C)C)ccc3N(CCN(C)C)C(=O)C2OC(C)=O)cc1` (configuration not stated), 5.6.
Under `Cc1cccc(N2CCN(CC3CN=C(N)O3)CC2)c1` (configuration not stated) stands 1.46.
Under `COP(=O)(OC)Oc1c(Cl)cc(C)cc1Cl` stands 2.66.
For the molecule `CC(=O)NN=Cc1c(CO)ccc(C)c1O`, the log partition coefficient (logP) amounted to 1.71.
As for `CCN(CC)C1CCc2c(OC)cccc2C1C` (configuration not stated), the figure is 3.47; as for `CCN(C)CC(=O)Nc1c(C)cccc1C`, 1.82; as for `CC(C)(C)[N+]([O-])=Cc1cc[n+]([O-])cc1`, -1.05.
The molecule `CC(C)C(NC(=O)C(Cc1ccccc1)NC(=O)CNC(=O)CNC(=O)C(N)Cc1c[nH]c2ccccc12)C(=O)O` (configuration not stated) (H-WGGFV-OH; configuration not given here) had a logP of -0.44.
As for `CCCc1ccccc1CNc1[nH]cnc2ncnc1-2`, the figure is 3.47.

As usually defined, the logP is a log measure of how a compound divides between an organic and an aqueous phase.
